{
  "source": "patent US20020172974A1",
  "about": "“Method of screening for antimicrobial compounds” (priority 1997, published 2002)",
  "key": {"E. coli JM109 [pSB311]": {"tested_on": "E. coli JM109 [pSB311]", "assay": "dual culture bioluminescence assay, reading before octanal substrate addition", "type": "cell-based", "settings": "E. coli/S. aureus co-culture, 5 hours at 37° C., FIG. 1", "protocol": "E. coli JM109 [pSB311] has a plasmid that contains the entire lux gene cassette (luxCDABE) from Photorhabdus luminescens. In this organism bioluminescence initiation is independent on the addition of aldehyde substrate.\nE. coli JM109 was grown overnight at 37° C. in Brain Heart Infusion (BHI) broth to give approximately 1×10^9 CFU/ml.\n(§1) S. aureus RN4220 [PKF1] was grown overnight at 37° C. in Brain Heart Infusion (BHI) broth containing 10 ug/ml chloramphenicol to give approximately 1×10^9 CFU/ml. The overnight cultures were diluted to give 1×10^6 CFU/ml for E. coli and 1×10^7 CFU/ml for S. aureus and 25 μl of each organism was added to each well.\n(§2) Test compounds were serially diluted in BHI and 50 μl was added to each well of a 96 well microtitre plate.\n(§3) The plate was incubated for 5 hours at 37° C. and bioluminescence from compound treated cells was compared with non-treated cells using a luminometer (Wallac LB96B) to give bioluminescence output for E. coli (no substrate addition)."}, "S. aureus RN4220 [pKF1]": {"tested_on": "S. aureus RN4220 [pKF1]", "assay": "dual culture bioluminescence assay, reading after octanal addition minus initial reading", "type": "cell-based", "settings": "E. coli/S. aureus co-culture, 5 hours at 37° C., RLU after octanal minus initial reading, FIG. 3", "protocol": "S. aureus RN4220 [pKF1] has a plasmid that contains only luxAB genes so bioluminescence is dependent on the addition of aldehyde substrate. Chloramphenicol resistance is used as a selective marker for plasmid maintenance.\nas §1, §2, §3\nTo monitor the effect of the antibiotics on S. aureus bioluminescence 50 μl of 0.01% (v/v) octanal substrate was added to each well and bioluminescence was measured immediately after substrate addition to each individual well (Total RLU's for both E. coli and S. aureus). To obtained RLU's for S. aureus the initial RLU reading was subtracted from the reading taken immediately following substrate addition."}},
  "data": [
    {"compound": "CC1(C)S[C@@H]2[C@H](NC(=O)[C@H](N)c3ccc(O)cc3)C(=O)N2[C@H]1C(=O)O", "note": "[Amoxicillin]", "values": [
      {"measurement": "potency against E. coli (comparison in words)", "setting": "E. coli JM109 [pSB311]; compared with mupirocin", "result": "more potent"},
      {"measurement": "activity against S. aureus (in words)", "setting": "S. aureus RN4220 [pKF1]", "result": "potent activity"}
    ]},
    {"compound": "C/C(=C\\C(=O)OCCCCCCCCC(=O)O)C[C@@H]1OC[C@H](C[C@@H]2O[C@H]2[C@@H](C)[C@H](C)O)[C@@H](O)[C@H]1O", "note": "[mupirocin]", "values": [
      {"measurement": "concentrations required to inhibit bioluminescence", "setting": "E. coli JM109 [pSB311]; no substrate addition", "result": "greater than 64 μl/ml"},
      {"measurement": "activity against S. aureus (in words)", "setting": "S. aureus RN4220 [pKF1]", "result": "potent activity"}
    ]}
  ]
}
